# Results: patent publication US9181182B2, “S1P receptors modulators” (Akaal Pharma PTY LTD, priority 2008, dated 2015)
# Target: S1P1 human receptor (Homo sapiens (Human), UniProt P21453)
# Assay: S1P1 [35S]-GTPgamaS binding assay (agonist activity)
# Type: biochemical
# Settings: for EC50: GTPgamaS binding, agonist; for EC50S1P1/EC50S1P: potency at S1P1 relative to S1P; for Efficacy (% of maximum): S1P1, relative to reference agonist S1P
# Experimental: Selected Compounds of the Examples were evaluated at Millipore Corporation, USA, using S1P1 receptor; [^35S]-GTPgamaS binding assay. A [^35S]-GTPgamaS binding assay at Millipore was conducted by GPCR Profiler™ Custom Service Laboratory, Temecula, Calif., Millipore, Inc. to monitor dose-dependent agonist selectivity for selected Examples against the S1P1 receptors. The assay was completed with sample compounds subjected to an eight-point, four-fold dose response curve with starting concentration of 10 μM. Selectivity was determined upon initial addition of compounds followed by a 30 minute incubation at 30° C. Following compound incubation, bounded [^35S]-GTPgamaS was determined by filtration and scintillation counting.
# Independently, selected compounds were evaluated for S1P1 and S1P3 agonistic activity. The S1P1 assay system was GTPgama-S35 binding in membranes from CHO K1 cells, expressing S1P1 human receptor. The S1P3 assay system was calcium mobilization in CHO K1 cells expressing S1P3 human receptor. […] Compounds were tested initially at a concentration of 10 μM.
# Chain of S1P1 human receptor (P21453 whole entry): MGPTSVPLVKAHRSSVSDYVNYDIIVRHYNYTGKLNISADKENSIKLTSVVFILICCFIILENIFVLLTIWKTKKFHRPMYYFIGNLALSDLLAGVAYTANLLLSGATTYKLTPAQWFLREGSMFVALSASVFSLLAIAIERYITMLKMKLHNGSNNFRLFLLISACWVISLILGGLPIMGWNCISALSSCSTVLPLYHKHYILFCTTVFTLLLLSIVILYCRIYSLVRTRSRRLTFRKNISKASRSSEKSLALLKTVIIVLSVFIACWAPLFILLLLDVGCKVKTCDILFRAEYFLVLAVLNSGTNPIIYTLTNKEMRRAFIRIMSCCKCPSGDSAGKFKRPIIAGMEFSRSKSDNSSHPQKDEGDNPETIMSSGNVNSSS
SMILES,EC50 [nM],EC50S1P1/EC50S1P,Efficacy (% of maximum) [%]
"CC(C)(C)OC(=O)NC(CO)(CO)CN1CCc2c(OCc3cc4c(Cl)cc(Cl)cc4o3)cccc21 [41(b), t-butyl 1-(4-((4,6-dichlorobenzofuran-2-yl)methoxy)indolin-1-yl)-3-hydroxy-2-(hydroxymethyl)propan-2-ylcarbamate]",> 29000,3066.24,–
"CCCCCCCCc1ccc(NCC(N)(CO)CO)cc1 [Example 1, 2-Amino-2-((4-octylphenylamino)methyl)propane-1,3-diol]",> 25000,>9259,–
"Cl.NC(CO)(CO)CCc1ccc(CCc2ccc(C(=O)c3ccc(F)cc3)cc2)cc1 [Example 12, (4-(4-(3-Amino-4-hydroxy-3-(hydroxymethyl)butyl)phenethyl)phenyl)(4-fluorophenyl)methanone hydrochloride salt]",1820,557,49
"NC(CO)(CO)CN1CCc2cc(OCc3ccc(-c4ccccc4C(F)(F)F)cc3)ccc2C1 [Example 39, 2-Amino-2-((6-((2′-(trifluoromethyl)biphenyl-4-yl)methoxy)-3,4-dihydroisoquinolin-2(1H)-yl)methyl)propane-1,3-diol]",> 3240,>1000,117
"CCCOc1ccc(-c2nc(-c3cccc4c3CCN4CC(N)(CO)CO)no2)cc1N [Example 46, 2-Amino-2-((4-(5-(3-amino-4-propoxyphenyl)-1,2,4-oxadiazol-3-yl)indolin-1-yl)methyl)propane-1,3-diol]",88,10.61,94
"CCCCOc1ccc(-c2nc(-c3ccc4c(c3)CCN4CC(N)(CO)CO)no2)cc1Cl [Example 52, 2-Amino-2-((5-(5-(4-butoxy-3-chlorophenyl)-1,2,4-oxadiazol-3-yl)indolin-1-yl)methyl)propane-1,3-diol]",34.5,3.55,62

# More lines, in order of falling EC50, values ahead:
EC50 [nM],EC50S1P1/EC50S1P,Efficacy (% of maximum) [%],SMILES
48.1,18.24,60,"CCCOc1ccc(-c2nc(-c3cccc4c3CCN4CC(N)(CO)CO)no2)cc1I [Example 44, 2-Amino-2-((4-(5-(3-iodo-4-propoxyphenyl)-1,2,4-oxadiazol-3-yl)indolin-1-yl)methyl)propane-1,3-diol]"
43.8,5.93,73,"CCCCCOc1ccc(-c2nc(-c3ccc4c(c3)CCN4CC(N)(CO)CO)no2)cc1Cl [Example 54, 2-Amino-2-((5-(5-(3-chloro-4-(pentyloxy)phenyl)-1,2,4-oxadiazol-3-yl)indolin-1-yl)methyl)propane-1,3-diol]"
31.6,2.56,101,"CCOc1ccc(-c2nc(-c3cccc4c3CCN4CC(N)(CO)CO)no2)cc1OC [Example 55, 2-Amino-2-((4-(5-(4-ethoxy-3-methoxyphenyl)-1,2,4-oxadiazol-3-yl)indolin-1-yl)methyl)propane-1,3-diol]"
6.7,0.14,78,"CCCc1ccc(-c2nc(-c3cccc4c3CCN4CC(N)(CO)CO)no2)cc1 [Example 48, 2-Amino-2-((4-(5-(4-propylphenyl)-1,2,4-oxadiazol-3-yl)indolin-1-yl)methyl)propane-1,3-diol]"
3.5,0.38,85,"CC(C)Oc1ccc(-c2nc(-c3ccc4c(c3)CCN4CC(N)(CO)CO)no2)cc1Cl [Example 51, 2-Amino-2-((5-(5-(3-chloro-4-isopropoxyphenyl)-1,2,4-oxadiazol-3-yl)indolin-1-yl)methyl)propane-1,3-diol]"
2.9,0.29,79,"CCCOc1ccc(-c2nc(-c3ccc4c(c3)CCN4CC(N)(CO)CO)no2)cc1Br [Example 56, 2-Amino-2-((5-(5-(3-bromo-4-propoxyphenyl)-1,2,4-oxadiazol-3-yl)indolin-1-yl)methyl)propane-1,3-diol]"
